{"source": "patent US20060002932A1", "about": "“Methods and compositions for enhancement of immunity by in vivo depletion of immunosuppressive cell activity” (priority 2004, published 2006)", "key": {"[1]": {"tested_on": "CD4^+ T-cell populations with increasing densities of CD25", "assay": "7-AAD staining of CD4+ T-cell populations", "format": "cell-based, human"}, "[2]": {"tested_on": "tumor-specific T cells", "assay": "Interferon-γ ELISPOT of vaccine-induced tumor-specific T cells in patients", "format": "in vivo, human", "procedure": "PBMC were cultured overnight in RPMI 1640 medium supplemented with 10% FCS. […] After washing, spots were counted using an automated Zeiss KS Elispot Compact reader (Carl Zeiss Inc., Minneapolis, Minn.).\nIn order to determine whether DAB389IL-2-mediated regulatory T cell depletion is capable of augmenting vaccine-induced CTL responses in vivo, Interferon-γ ELISPOT analysis was used to determine the frequencies of vaccine-induced, tumor-specific T cells from PBMC samples collected prior to (white bars) and two weeks after (grey bars) the third vaccination (study week 8). Purified CD8^+ T cells were isolated from pre- and post-vaccination PBMCs and were cultured overnight with tumor RNA transfected DC targets. As controls, PBMC RNA or benign renal epithelium (RE)-derived RNA-transfected DCs were used for short-term antigenic stimulation. Visible spots were then counted using an automated ELISPOT reader. […] In contrast, a significant increase of tumor-specific T cells was consistently observed in the treated subjects after vaccination. […]\nPre- and post-treatment T-cell analysis was performed by Interferon-γ ELISPOT on all patients who completed immunotherapy. Increases of antigen-specific CD4^+ and CD8^+ T cells after vaccination were compared using the Wilcoxon matched-pairs signed rank test, analyzing the null hypothesis that the rates of change in T-cell response were equivalent prior to and after therapy. A two-sided p-value of <0.05 was considered statistically significant.\nIn order to determine whether DAB389IL-2-mediated Treg depletion is capable of augmenting vaccine-induced CD8^+ and CD4^+ T-cell responses in cancer patients, Interferon-γ ELISPOT analyses were performed to determine the frequencies of vaccine-induced, tumor-specific T cells from PBMC samples collected before and two weeks after the third vaccination. CD8^+ and CD4^+ T cells were isolated from pre- and post-vaccination PBMC and cultured overnight with tumor RNA-transfected DC targets. As controls, autologous PBMC RNA or autologous benign renal epithelium (RE)-derived RNA-transfected DC were used for short-term antigenic stimulation. As exemplified by the 3 study subjects shown in FIG. 10A, only background levels of PBMC-specific T cells were observed before (white bars) or after vaccination (grey bars)."}, "[3]": {"conditions": "6 RCC patients, DAB389IL-2 plus RCC RNA-transfected DC"}, "[4]": {"conditions": "per patient, DAB389IL-2 4 days prior to tumor RNA-transfected DC vaccination"}}, "note": "Values joined by “and” are separate entries in the source; they are usually repeats but may differ in a detail not shown here. Equal values may be shown once. “Also recorded” adds a separate entry of the source."}
{"substance": "denileukin diftitox [DAB389IL-2]", "values": [{"measurement": "7-AAD staining of other CD4^+ T cells with lower or no CD25 expression", "setting": "[1]", "value": "only background levels of 7-AAD staining"}, {"measurement": "concentration giving optimal killing of CD4^+/CD25^high Treg", "setting": "[1]; 7-AAD staining", "value": 5, "unit": "nM"}, {"measurement": "median increase in tumor-specific CD4^+ T cells", "setting": "[2]; [3]", "value": 7.2, "unit": "fold"}, {"measurement": "median increase in tumor-specific CD8^+ T cells", "setting": "[2]; [3]", "value": 7.9, "unit": "fold"}, {"measurement": "tumor-specific T-cell response after DAB389IL-2 alone", "setting": "[2]; DAB389IL-2 only, no vaccine", "value": "did not increase a tumor-specific CTL response in vivo; also recorded: did not significantly increase"}, {"measurement": "tumor-specific (CD8^+) T cells vs vaccination alone", "setting": "[2]; DAB389IL-2 plus vaccination compared with vaccine alone", "value": "significantly higher numbers of tumor-specific CD8^+ T cells"}, {"measurement": "increase in tumor-specific CTL frequencies", "setting": "[2]; Example 2, subjects receiving combined treatment", "value": "up to 16 fold"}, {"measurement": "CD4^+ T-cell responses vs vaccination alone", "setting": "[2]; combined therapy, RCC patients, p=0.055", "value": "trend towards improved CD4^+ T-cell responses"}, {"measurement": "ELISPOT (Fold increase after vaccination) CD4^+", "setting": "[2]; [4]", "value": "7.6 fold and 6.3 fold and 2.2 fold and 9.7 fold and 31.0 fold and 6.8 fold and 4.5 fold"}, {"measurement": "ELISPOT (Fold increase after vaccination) CD8^+", "setting": "[2]; [4]", "value": "16.0 fold and 12.5 fold and 5.4 fold and 7.4 fold and 7.8 fold (2×) and 8.0 fold"}, {"measurement": "longitudinal vaccine-induced CD8^+ T-cell response", "setting": "[2]; subject 02-DAB vs 11-RCC", "value": "significantly enhanced and also prolonged CD8^+ T-cell response"}]}
